Test results: patent US9303165B2, “Bacteriochlorin imides” (North Carolina State University, priority 2011, dated 2016)
Like-named read-outs stand apart in the source and are kept apart here.

Key:
[1] = organic solvents; cited from earlier work
[2] = Singlet excited-state lifetime by fluorescence techniques; type: physicochemical; details: toluene, room temperature; error ± 7%
Experimental: (§1) Static absorption and fluorescence measurements were performed as described previously.^69,70 Argon-purged solutions of the samples in toluene with an absorbance of ≦0.10 at the excitation wavelength were used for the fluorescence spectral, quantum yield, and lifetime measurements. Fluorescence lifetimes were obtained using a phase modulation technique and Soret-band excitation^70 or via decay measurements using Soret-region excitation pulses obtained from a nitrogen-pumped dye laser and time-correlated-single-photon-counting detection. Emission measurements employed 2-4 nm excitation- and detection-monochromator bandwidths and 0.2 nm data intervals. Emission spectra were corrected for detection-system spectral response.

[3] = Static absorption spectra (Qy(0,0) band); type: physicochemical; details: for λQy abs: Qy(0,0) absorption band, in toluene at room temperature; for λQy/IB: ratio of the peak intensities of the Qy(0,0) and B bands, toluene, room temperature
Experimental: as §1

[4] = cited from earlier work
[5] = Static fluorescence spectra and fluorescence quantum yield; type: physicochemical; details: for λQy em: Qy(0,0) emission band, in toluene at room temperature; for Φf fluorescence quantum yield: toluene, room temperature, argon-purged, error ± 7%
Experimental: as §1

[6] = cited from earlier work; remark: listed apart in the source

In the case of CC[C@H]1c2cc3[nH]c4c(c3C)C(=O)[C@H](C(=O)OC)c4c3nc(cc4[nH]c(cc(n2)[C@@H]1C)c(C(C)=O)c4C)[C@@H](C)[C@@H]3CCC(=O)OC/C=C(\C)CCC[C@H](C)CCC[C@H](C)CCCC(C)C [BPh-a, Bacteriopheophytin a], the “average singlet excited-state lifetime” value [1] is listed as 2.0-2.7 ns, the “τs lifetime of the lowest singlet excited state” value (“τs lifetime” for short) [2] is listed as 2.7 ns and the λQy abs [3] is listed as 758 nm. For the same compound, the λQy/IB [3] was 0.69, the “Qy(0,0) absorption” value ([4]; hydrocarbon / organic solvents) was 750-760 nm and the λQy em [5] was 768 nm. For the same compound, the “Φf fluorescence quantum yield” value [5] was 0.10.

In the case of CC(=O)c1cc2cc3nc(cc4[nH]c(cc5nc(cc1[nH]2)CC5(C)C)cc4C(C)=O)CC3(C)C [HBC-A], the “τs lifetime” value [2] is reported as 2.9 ns, the λQy abs [3] is reported as 768 nm and the λQy/IB [3] is reported as 1.2. For the same compound, the λQy em [5] was 771 nm and the “Φf fluorescence quantum yield” value [5] was 0.11.

In the case of CCOC(=O)c1c(CC)c2cc3nc(c4c5[nH]c(cc6nc(cc1[nH]2)CC6(C)C)c(CC)c5C(=O)N(Cc1ccccc1)C4=O)CC3(C)C [HBC-I, 15^2-N-Benzyl-3-ethoxycarbonyl-2,12-diethyl-8,8,18,18-tetramethylbacteriochlorin-13,15-dicarboximide], the “τs lifetime” value [2] is reported as 1.9 ns, the λQy abs [3] is reported as 818 nm and the λQy/IB [3] is reported as 1.3. The λQy em [5] was 823 nm, the “Stokes shift (fluorescence Qy(0,0) to longer wavelength than absorption Qy(0,0))” value (“Stokes shift” for short) ([5]; in toluene) was ~5 nm and the “Φf fluorescence quantum yield” value [5] was 0.036.

With CC(=O)c1c(C)c2cc3nc(cc4[nH]c(cc5nc(cc1[nH]2)CC5(C)C)c(C)c4C(C)=O)CC3(C)C [HBC-MeA, 3,13-Diacetyl-2,8,8,12,18,18-hexamethylbacteriochlorin] the λQy abs [3] was 766 nm.

For CC1(C)Cc2cc3ccc(cc4nc(cc5ccc(cc1n2)[nH]5)CC4(C)C)[nH]3 [HBC], the “τs lifetime” value [2] was 4.0 ns, the λQy abs [3] was 713 nm and the λQy/IB [3] was 0.85. The λQy em [5] was 716 nm and the “Φf fluorescence quantum yield” value [5] was 0.17.

In the case of COc1c2nc(cc3cc(C(C)=O)c(cc4nc(cc5cc(C(C)=O)c1[nH]5)C(C)(C)C4)[nH]3)C(C)(C)C2 [MeOBC-A, 3,13-Diacetyl-5-methoxy-8,8,18,18-tetramethylbacteriochlorin], the “τs lifetime” value [2] is reported as 3.8 ns, the λQy abs [3] is reported as 740 nm and the λQy/IB [3] is reported as 0.96. For the same compound, the λQy em [5] was 747 nm and the “Φf fluorescence quantum yield” value [5] was 0.14.

In the case of CCOC(=O)c1c(CC)c2cc3nc(c(OC)c4[nH]c(cc5nc(cc1[nH]2)CC5)c(CC)c4C(=O)OCC)CC3 [MeOBC-EtEs, 2,12-diethyl-3,13-diethoxycarbonyl-5-methoxybacteriochlorin], the “τs lifetime” value [2] is reported as 4.3 ns, the λQy abs [3] is reported as 739 nm and the λQy/IB [3] is reported as 1.1. For the same compound, the λQy em [5] was 749 nm, the “Stokes shift” value ([5]; in toluene) was ~15 nm and the “Φf fluorescence quantum yield” value [5] was 0.17.

In the case of CCOC(=O)c1c(CC)c2cc3nc(c4c5[nH]c(cc6nc(c(OC)c1[nH]2)CC6(C)C)c(CC)c5C(=O)N(Cc1ccccc1)C4=O)CC3(C)C [MeOBC-I, 15^2-N-Benzyl-3-ethoxycarbonyl-2,12-diethyl-5-methoxy-8,8,18,18-tetramethyl-bacteriochlorin-13,15-dicarboximide], the “τs lifetime” value [2] is reported as 2.2 ns, the λQy abs [3] is reported as 793 nm and the λQy/IB [3] is reported as 1.0. For the same compound, the λQy em [5] was 798 nm, the “Stokes shift” value ([5]; in toluene) was ~5 nm and the “Φf fluorescence quantum yield” value [5] was 0.052.

For COc1c2nc(cc3[nH]c(cc4nc(cc5[nH]c1c(C(C)=O)c5C)C(C)(C)C4)c(C(C)=O)c3C)C(C)(C)C2 [MeOBC-MeA, 3,13-Diacetyl-5-methoxy-2,8,8,12,18,18-hexamethylbacteriochlorin], the “τs lifetime” value [2] was 3.4 ns, the λQy abs [3] was 743 nm and the λQy/IB [3] was 0.95. For the same compound, the λQy em [5] was 749 nm and the “Φf fluorescence quantum yield” value [5] was 0.13.

In the case of COc1c2nc(cc3ccc(cc4nc(cc5ccc1[nH]5)C(C)(C)C4)[nH]3)C(C)(C)C2 [MeOBC], the “τs lifetime” value [2] is reported as 5.0 ns, the λQy abs [3] is reported as 709 nm and the λQy/IB [3] is reported as 0.87. For the same compound, the λQy em [5] was 711 nm and the “Φf fluorescence quantum yield” value [5] was 0.25.

In the case of COc1c2nc(cc3[nH]c4c(c5nc(cc6[nH]c1c(C(C)=O)c6C)C(C)(C)C5)CC(=O)c4c3C)C(C)(C)C2 [MeOBOP, 3-Acetyl-5-methoxy-2,8,8,12,18,18-hexamethylbacterio-13^1-oxophorbine], the “τs lifetime” value [2] is reported as 4.6 ns, the λQy abs [3] is reported as 733 nm and the λQy/IB [3] is reported as 0.93. The λQy em [5] was 739 nm, the “Stokes shift” value ([5]; in toluene) was ~5 nm and the “Φf fluorescence quantum yield” value [5] was 0.19.

In the case of C=Cc1c(C)c2cc3nc(c4c5[n-]c(cc6nc(cc1[n-]2)C(C)=C6CC)c(C)c5C(=O)[C@@H]4C(=O)OC)[C@@H](CCC(=O)OC/C=C(\C)CCC[C@H](C)CCC[C@H](C)CCCC(C)C)[C@@H]3C.[Mg+2] [chlorophyll a], the “Φf of quantum yield standard” value ([6]; in benzene) is listed as 0.325 and the “Φf of quantum yield standard” value ([5]; in toluene) is listed as “same value as in benzene”.

In the case of C1=Cc2nc1c(-c1ccccc1)c1ccc([nH]1)c(-c1ccccc1)c1nc(c(-c3ccccc3)c3ccc([nH]3)c2-c2ccccc2)C=C1 [free base tetraphenylporphyrin], the “Φf of quantum yield standard” value ([6]; free base) is listed as 0.090.

For CC[C@H]1c2cc3[nH]c4c(c5nc(cc6[nH]c(cc(n2)[C@@H]1C)c(C(C)=O)c6C)[C@@H](C)[C@@H]5CCC(=O)OC)CC(=O)c4c3C [methyl bacteriopyropheophorbide a], the “Qy(0,0) absorption” value ([4]; in CH2Cl2) is listed as 754 nm.

In the case of CC(=O)O[C@@H]1C[C@@H](O)[C@@H](C)OC1[C@]1(C)C(=O)c2cc3cc(C)c(cc4nc(cc5[nH]c(cc1n2)cc5C)C(=O)[C@@]4(C)C1O[C@H](C)[C@H](O)C[C@H]1OC(C)=O)[nH]3 (some centres unmarked) [tolyporphin A], the absorption wavelength [4] is given as 678 nm.
